Assay results as given in US20070243548A1, “Calumenin-directed diagnostics and therapeutics for cancer and chemotherapeutic drug resistance” (priority 2006, published 2007).
Like-named read-outs stand apart in the source and are kept apart here.

Tests used:
Format in all cases: cell-based, human
[1] = tested on: MDA breast adenocarcinoma cell line; assay: MTT cytotoxicity assay, calumenin-depleted MDA cells; conditions: Table 3; calumenin-depleted MDA vs mock siRNA-transfected cells; NC = no change occurred
Method: (§1) For a typical siRNA transfection, […] of the annealed siRNA duplex was mixed with 1.4 ml of Opti-MEM reagent (Invitrogen). In another tube, […] of Oligofectamine reagent (Invitrogen, Carlsbad, Calif.) was mixed with […] of Opti-MEM. The two solutions were combined and mixed gently by inversion and incubated for 20 min. at RT. The resulting solution was added to the cultured cells drop by drop in a 10 cm dish (cells are approximately 40-50% confluent). The next day the transfected cells were trypsinized and seeded in 6 or 96-well plates and further incubated for the indicated amount of time (assay dependent) before further analysis.
(§2) Cell survival was determined using the MTT cytotoxicity assay (see, e.g., Tokuyama et al. (2005) Anticancer Res. 25(1A): 17-22). Small interfering RNA transfected cells were seeded in triplicate into 96-well plates at 5×10^3 cells/well 48 hrs post-transfection. The cells were incubated for an additional 16 to 24 hrs before they were exposed to increasing concentrations of cytotoxic drugs. Doxorubicin (adriamycin), cisplatin, taxol, vinblastine, vincristine, and mitoxantrone were all purchased from Sigma Corp. (St. Louis, Mo.). Stocks were made as follows: 6 mM for doxorubicin, 1.1 mM for vincristine and vinblastine; 1.1 mM for taxol, 50 mM for cisplatin both in DMSO; and 0.97 mM mitoxantrone in ethanol. Appropriate dilutions were made in the respective media for each cell line. Following addition of drugs, incubation was continued for an additional 72 hrs. […] of MTT dye (5 mg/ml) were added into each well and the plate was further incubated at 37° C. for 4 hrs. The dye was solubilized with 10% Triton X-100, 0.01 N HCl and further incubated at 37° C. in the dark for 30 min. Cell viability was determined by measure of absorption at 570 nm in a Wallac multiwell plate reader (PerkinElmer, Inc., Boston, Mass.). The averages of triplicate wells were plotted using the Prism software (GraphPad Software, Inc., San Diego, Calif.).

[2] = tested on: MCF-7 cells; assay: cells; conditions: 72 hours post transfection
[3] = tested on: SKOV3 ovarian adenocarcinoma cell lines; assay: MTT cytotoxicity assay, calumenin-depleted SKOV3 cells; conditions: Table 3; calumenin-depleted SKOV3 vs mock siRNA-transfected cells
Method: as §1, §2

[4] = tested on: MCF-7 cells; assay: cells; conditions: for fold more sensitive to drug / fold lower viability to drug treatment as compared to control cells: calumenin-depleted MCF-7 cells; for fold more sensitive to drug: FIGS. 6A and 6B; for IC50: Homo sapiens, MCF7; for IC50 / IC10: MCF-7 cells, determined from MTT experiments; for fold lower viability to drug treatment as compared to control cells: FIGS. 6C and 6D
Method: as §1, §2

[5] = tested on: MCF-7 cells; assay: Clonogenic assay, siRNA-transfected MCF-7 cells; conditions: FIG. 7; for cell survival, calumenin-directed siRNA and drug treatment as compared to drug treatment alone: MCF-7, IC10 and IC90 drug concentrations
Method: A clonogenic assay generated additional information concerning cell viability after drug-resistant cells were exposed to siRNA and chemotherapeutics. Briefly, transfected MCF-7 cells were seeded in triplicate into 24-well plates at 5×10^3 cells/well 48 hrs post-transfection. The cells were incubated for an additional 16-24 hrs before they were exposed to increasing concentrations of cytotoxic drugs. […] The cells were further incubated for an additional 7 days. At the end of the incubation, the cells were stained with addition of a 0.5% Methylene Blue solution in 50% ethanol for 15 min. at RT. The staining solution was then removed and plates were dried overnight. The plates were scanned and the stained colonies were solubilized in 0.1% SDS. The absorbance of the resulting solution was determined by spectrophotometry at 660 nm. […] The same results were found for cells treated with vincristine and calumenin-directed siRNA as compared to vincristine alone (FIG. 7).

[6] = Homo sapiens, MCF7 cells transfected with calumenin-directed siRNA (table: vector expressing calumenin-encoding RNA), read-out: EC50, Calumenin
[7] = Homo sapiens, mock vector transfected MCF7 cells, read-out: EC50, Control
[8] = Table 2, calumenin vs control transfected MCF7 cells
[9] = Table 3, calumenin-depleted MCF-7 vs mock siRNA-transfected cells
[10] = calumenin depleted MCF-7, IC50 drug treatment level

SMILES | IS: increased sensitivity to the particular drug [1] | EC50 [2, 6] | EC50 [2, 7] | IS: increased sensitivity to the particular drug [3] | IS: increased sensitivity to the particular drug [4, 8] | IS: increased sensitivity to the particular drug [4, 9] | fold more sensitive to drug [4] | sensitivity of calumenin silenced MCF-7 cells to drug [5] | cell survival, calumenin-directed siRNA and drug treatment as compared to drug treatment alone [5] | more sensitive to drug than cells transfected with control siRNA [5, 10] | more sensitive to drug than cells transfected with control siRNA ([5]; calumenin-directed siRNA transfected MCF-7, IC10 drug treatment level) | IC50 [4] | IC10 [4] | more sensitive to drug than cells transfected with control siRNA ([5]; calumenin depleted MCF-7, IC90 drug treatment level) | fold lower viability to drug treatment as compared to control cells [4] | EC50 ([2]; MCF7 cells transfected with calumenin-directed siRNA (table: vector expressing calumenin-encoding RNA), read-out: EC50, Calumenin) | EC50 ([2]; mock vector transfected MCF7 cells, read-out: EC50, Control)
COc1cccc2c1C(=O)c1c(O)c3c(c(O)c1C2=O)C[C@@](O)(C(=O)CO)C[C@@H]3O[C@H]1C[C@H](N)[C@H](O)[C@H](C)O1 [Doxorubicin] | 2.4 × IS | 27.4 nM | 50 nM | 1.6 × IS | 1.8 × IS | 1.8 × IS | two | – | – | – | – | – | – | – | – | – | –
CC(=O)O[C@H]1C(=O)[C@@]2(C)[C@H]([C@H](OC(=O)c3ccccc3)[C@]3(O)C[C@H](OC(=O)[C@H](O)[C@@H](NC(=O)c4ccccc4)c4ccccc4)C(C)=C1C3(C)C)[C@]1(OC(C)=O)CO[C@@H]1C[C@@H]2O [Taxol] | 3.8 × IS | – | – | 2.1 × IS | 4130.2 × IS | >10 × IS | – | substantial increase | significantly decreased | 50% | 30% | 100 nM | 1 nM | – | – | – | –
CC(=O)O[C@@]12CO[C@@H]1C[C@H](O)[C@@]1(C)C(=O)[C@H](O)C3=C(C)[C@@H](OC(=O)[C@H](O)[C@@H](NC(=O)OC(C)(C)C)c4ccccc4)C[C@@](O)([C@@H](OC(=O)c4ccccc4)[C@H]21)C3(C)C [Docetaxel] | – | 0.00463 nM | 0.00976 nM | – | 2.1 × IS | – | – | – | – | – | – | – | – | – | – | – | –
CC[C@]1(O)C[C@H]2CN(CCc3c([nH]c4ccccc34)[C@@](C(=O)OC)(c3cc4c(cc3OC)N(C=O)[C@H]3[C@@](O)(C(=O)OC)[C@H](OC(C)=O)[C@]5(CC)C=CCN6CC[C@]43[C@@H]65)C2)C1 [Vincristine] | 3.8 × IS | 0.00274 nM | 0.0471 nM | 4 × IS | 17.2 × IS | 17 × IS | – | substantial increase | same results | 20% | – | 0.25 nM | 5000 nM | 33% | 17 fold | – | –
CC[C@]1(O)C[C@@H]2CN(CCc3c([nH]c4ccccc34)[C@@](C(=O)OC)(c3cc4c(cc3OC)N(C)[C@H]3[C@@](O)(C(=O)OC)[C@H](OC(C)=O)[C@]5(CC)C=CCN6CC[C@]43[C@@H]65)C2)C1 [Vinblastine] | – | – | 0.00149 nM | – | 656.9 × IS | – | – | – | – | – | – | – | – | – | – | – | –
N.N.[Cl][Pt][Cl] [Cisplatin] | – | – | – | 3.3 × IS | 8.5 × IS | 8.5 × IS | – | – | – | – | – | – | – | – | 9 fold | 2240 nM | 19100 nM
O=C1c2c(O)ccc(O)c2C(=O)c2c(NCCNCCO)ccc(NCCNCCO)c21 [Mitoxantrone] | 6 × IS | 1.38 nM | 6.04 nM | 1.6 × IS | 4.4 × IS | 4.4 × IS | four | – | – | – | – | – | – | – | – | – | –
COc1cc([C@@H]2c3cc4c(cc3[C@@H](O[C@@H]3O[C@@H]5CO[C@@H](C)O[C@H]5[C@H](O)[C@H]3O)[C@H]3COC(=O)[C@H]23)OCO4)cc(OC)c1O [Etoposide] | – | 957 nM | 1200 nM | – | 1.3 × IS | – | – | – | – | – | – | – | – | – | – | – | –
